Experiment [1] relates to MRSA. Description: Inhibition of short-term bacterial growth (absorbance at 450 nm). In kind it is cell-based. Conditions: Staphylococcus aureus, 3.5 h incubation, Mueller-Hinton broth. As for the experimental part: (§1) Compound 3, being the best antibacterial derivative, was chosen for further evaluation on its antibacterial effect to inhibit short-term S. aureus and MRSA growth (Figure 2). This includes the GI50 of tiamulin fumarate for S. aureus and MRSA.
(§2) The inhibition activities of test compounds were evaluated by measuring the absorbance of the bacterial suspension. In brief, inoculums were prepared from blood slants and adjusted to approximately 10^6 CFU/mL in Muellere-Hinton broth. The 0.0625, 0.125, 0.25, 0.5, 1, and 2 µM of tested compounds were prepared and added to the prepared inoculums. A sample of inoculum with no compound was used as control. The absorbance of bacterial suspension at 450 nm was measured using an UV spectrophotometer after 3.5 h of incubation, and the inhibition was calculated as 1 − (A^P/A^0), where A^p and A^0 are the absorbance of bacterial suspension in the presence and absence of compounds, respectively. The same procedure was independently repeated in triplicate.

The test system of experiment [2] is S. aureus. The description is as above. In kind it is cell-based. To be noted: Staphylococcus aureus, 3.5 h, read-out: GI50 S. aureus growth. As to the method:
as §1, §2

Experiment [3] has as its system Staphylococcus haemolyticus (S. haemolyticus). Description: MIC testing, agar dilution method. In kind it is cell-based. Conditions: 36.5 °C, 24–48 h. An excerpt:
(§3) The synthesized pleuromutilin derivatives 3 and 4a–l, with tiamulin fumarate used a as reference drug, were screened for their in vitro antibacterial activity against Escherichia coli (E. coli), Staphylococcus aureus (S. aureus), Methicillin-resistant Staphylococcus aureus (MRSA), Staphylococcus vitulinus (S. vitulinus), Staphylococcus warneri (S. warneri), and Staphylococcus haemolyticus (S. haemolyticus). The antibacterial activities are reported in Table 1 as the minimum inhibitory concentration (MIC) using the agar dilution method. The MICs of the 13 new pleuromutilin derivatives in vitro against E. coli ranged from 10 to 80 μg/mL; against S. aureus, MRSA, S. vitulinus, S. warneri, and S. haemolyticus ranged from 0.156 to 40 μg/mL, respectively.
(§4) The MIC for the synthesized compounds (3 and 4a–l) and tiamulin fumarate used as a reference drug were determined using the agar dilution method according to the National Committee for Clinical Laboratory Standards (NCCLS). Tested compounds were dissolved in 25%–40% DMSO to a solution with a concentration of 1280 µg/mL, whereas tiamulin fumarate was directly dissolved in 10 mL of distilled water at the same concentration as the tested compounds. All the solutions were then diluted twofold with sterile water to provide 11 dilutions (final concentration is 0.625 µg/mL). A 2 mL volume of the 2-fold serial dilution of each test compound/drug was incorporated into 18 mL of hot Muellere-Hinton agar medium. Inoculums, including five Gram (+), S. aureus, MRSA, S. vitulinus, S. warneri, S. haemolyticus, and one Gram (−), E. coli were prepared from blood slants and adjusted to approximately 10^5–10^6 CFU/mL with sterile saline (0.90% NaCl). A 10 µL amount of bacterial suspension was spotted onto Muellere-Hinton agar plates containing serial dilutions of the compounds/drug. The plates were incubated at 36.5 °C for 24–48 h. The same procedure was repeated in triplicate.

In experiment [4] the test system is Escherichia coli (E. coli). The experiment is described as follows: MIC testing, agar dilution method. In kind it is cell-based. Conditions: 36.5 °C, 24–48 h.
Text: as §3, §4

Experiment [5] relates to Staphylococcus warneri (S. warneri). Description: MIC testing, agar dilution method. In kind it is cell-based. Conditions: 36.5 °C, 24–48 h.
Text: as §3, §4

Experiment [6] has as its system Staphylococcus vitulinus (S. vitulinus). The experiment is described as follows: MIC testing, agar dilution method. In kind it is cell-based. Conditions: Mammaliicoccus vitulinus, 36.5 °C, 24–48 h.
Text: as §3, §4

For experiment [7], the system named is Staphylococcus aureus (S. aureus). Description: MIC testing, agar dilution method. In kind it is cell-based. To be noted: 36.5 °C, 24–48 h.
Text: as §3, §4

The test system of experiment [8] is Methicillin-resistant Staphylococcus aureus (MRSA). The experiment is described as follows: MIC testing, agar dilution method. In kind it is cell-based. Conditions: 36.5 °C, 24–48 h.
Text: as §3, §4

A further experiment deals with S. warneri. Description: Oxford cup assay, zone of inhibition. In kind it is cell-based. Conditions: Staphylococcus warneri. As to the method:
(§5) The Oxford cup assays were carried out to evaluate the antibacterial activities against the above-mentioned six bacterial strains. The zones of inhibition for two concentrations (320 and 160 μg/mL) of the synthetic compounds and tiamulin fumarate were measured. The results of Oxford cup assay correspond with that obtained by agar dilution method (MICs) as a whole.
(§6) The procedure for Oxford cup assays was the same as that previously reported. Briefly, inoculums were prepared in 0.9% saline using McFarland standard and spread uniformly on nutrient agar plates. The 320 and 160 µg/mL of all the tested compounds were added individually into the Oxford cups that were placed at equal distances above the agar surfaces. The zone of inhibition for each concentration was measured after a 24–36 h incubation at 37 °C. The same procedure was repeated in triplicate.

Experiment [9] relates to MRSA. Description: Oxford cup assay, zone of inhibition. In kind it is cell-based. Conditions: Staphylococcus aureus. As to the method:
as §5, §6

For a further experiment, the system named is E. coli. The experiment is described as follows: Oxford cup assay, zone of inhibition. In kind it is cell-based. Conditions: Escherichia coli. As to the method: as §5, §6
In experiment [10] the test system is S. aureus. The experiment is described as follows: Oxford cup assay, zone of inhibition. In kind it is cell-based. To be noted: Staphylococcus aureus. As to the method:
as §5, §6

The next experiment concerns S. haemolyticus. Description: Oxford cup assay, zone of inhibition. In kind it is cell-based. To be noted: Staphylococcus haemolyticus. As for the experimental part: as §5, §6
The next experiment deals with S. vitulinus. The experiment is described as follows: Oxford cup assay, zone of inhibition. Conditions: Mammaliicoccus vitulinus. In kind it is cell-based, Staphylococcus vitulinus. As to the method:
as §5, §6

Structures can show the parent of a compound that is named as a salt.

In the case of `C=C[C@]1(C)C[C@@H](OC(=O)CSCCN(CC)CC)[C@]2(C)[C@H](C)CC[C@]3(CCC(=O)[C@H]32)[C@@H](C)[C@@H]1O` [Tiamulin, tiamulin fumarate, reference compound], the GI50 worked out at 254 nM in the experiment on MRSA [1] and 98.3 nM in the experiment on S. aureus [2]. The minimal inhibitory concentration (MIC) worked out at 0.156 µg/mL in experiment [3]; 1.25 µg/mL in experiment [4]; 0.156 µg/mL in experiment [5]; 0.156 µg/mL in experiment [6]; 0.156 µg/mL in [7]; 0.156 µg/mL in [8]. Further, the zone of inhibition at 160 µg/mL with S. warneri (160 µg/mL) came to 22.4 mm; in the experiment on MRSA [9] (160 µg/mL) it was 28.1 mm; in the experiment on E. coli (160 µg/mL), 25.8 mm; with S. aureus [10] (160 µg/mL), 25.1 mm; in the experiment with S. haemolyticus (160 µg/mL), 28.8 mm; with S. vitulinus (160 µg/mL), 18.6 mm. Further, the zone of inhibition at 320 µg/mL with S. warneri (320 µg/mL) was 30.5 mm; in the experiment on MRSA [9] (320 µg/mL), 30.5 mm; in the experiment with E. coli (320 µg/mL), 27.1 mm; with S. aureus [10] (320 µg/mL), 28.2 mm; in the experiment with S. haemolyticus (320 µg/mL), 31.5 mm; in the experiment with S. vitulinus (320 µg/mL) it was 30.9 mm.

These data come from PMC6273978, “Synthesis and Pharmacological Evaluation of Novel Pleuromutilin Derivatives with Substituted Benzimidazole Moieties” (Molecules, 2016).
